These results are taken from article PMC9530166, “Allosteric regulation of glycogen breakdown by the second messenger cyclic di-GMP” (Nature Communications, 2022).

Test [1] concerns the target GlgX (Streptomyces venezuelae, UniProt F2RAW5). The test is described as follows: Microscale thermophoresis (MST). The class given is binding. As to conditions: 40 nM RED-NHS labeled GlgX, unlabeled c-di-GMP, n=2. The protocol: For MST experiments, purified GlgX was labeled using Monolith NT protein labeling kit RED-NHS (amine reactive) dye (NanoTemper Technologies GmbH) according to manufacturer´s guidelines. The protein concentration was adjusted to 20 μM in labeling buffer and the labeling reaction was carried out at rt for 30 min in the dark. Excess fluorescence dye was subsequently removed from the labeled protein by gel filtration using a dye removal column provided by the supplier and equilibrated with MST buffer (25 mM Tris pH 8, 150 mM NaCl, 2.5% (v/v) glycerol, 5 mM MgCl2, 0.05% (v/v) Tween). A UV/VIS spectrophotometry at 650 and 280 nm was used to determine the degree of labeling. Next, labeled GlgX was adjusted to 80 nM in MST buffer and a series of 16 1:2 dilutions of c-di-GMP (BioLog) were prepared using the same buffer. An equal volume of protein and c-di-GMP dilutions were mixed resulting in 16 samples with 40 nM protein each and c-di-GMP concentrations ranging from 2 mM to […]. Samples were then loaded into Monolith NT.115 Premium Capillaries (NanoTemper Technologies) and MST was measured using a Monolith NT.115 instrument (NanoTemper Technologies). Instrument parameters were set to 20% LED power and 40% MST power and the data were analyzed using MO.Affinity Analysis software version 2.3; NanoTemper Technologies. […]

The test system of test [2] is His6-GlgXD342A. The test is described as follows: BCA reducing-end enzyme assay, GlgXD342A. The class given is biochemical, Streptomyces venezuelae. The settings on record: 50 µM c-di-GMP, 0.05% glycogen from rabbit, 1 µM enzyme. The protocol: Fig. 2 c-di-GMP stimulates glycogen breakdown activity of GlgX in vitro. a Bicinchoninic acid (BCA) in vitro enzyme assay. The purple copper bicinchoninate complex indicating GlgX-mediated generation of reducing ends in glycogen was quantified by photometric measurements at 562 nm. A562 values were converted into reducing ends [µM glucose equivalents] based on D-glucose as a standard. Reactions contained 0.05% (w/v) glycogen from rabbit, 1 µM GlgX and increasing concentrations of c-di-GMP (0–100 µM). Source data are provided as a Source data file. b BCA assay containing 0.05% of either glycogen from rabbit, pullulan, amylopectin from maize or amylose from potato as substrates. Where appropriate, 1 µM GlgX or 50 µM c-di-GMP were added to the reaction samples. Source data are provided as a Source data file. c BCA assay as in a with or without c-di-GMP (50 µM), 0.05% glycogen from rabbit (S) and 1 µM Vnz25270, GlgX, the active site mutants GlgXD342A, GlgXE378A, GlgXD342A+E378A, or the c-di-GMP-binding mutant variant GlgXDETR49-52 as indicated. […]
Hydrolysis of carbohydrates was assessed in vitro by measuring the accumulation of reducing sugar ends using the BCA assay[42] and D-glucose as a standard for calibration (Supplementary Fig. 11). […] 125 μl sample aliquots were transferred in duplicates to a 96 well plate and the absorbance at 562 nm was measured using a plate reader.

GlgX, sequence (F2RAW5 entry or part of it): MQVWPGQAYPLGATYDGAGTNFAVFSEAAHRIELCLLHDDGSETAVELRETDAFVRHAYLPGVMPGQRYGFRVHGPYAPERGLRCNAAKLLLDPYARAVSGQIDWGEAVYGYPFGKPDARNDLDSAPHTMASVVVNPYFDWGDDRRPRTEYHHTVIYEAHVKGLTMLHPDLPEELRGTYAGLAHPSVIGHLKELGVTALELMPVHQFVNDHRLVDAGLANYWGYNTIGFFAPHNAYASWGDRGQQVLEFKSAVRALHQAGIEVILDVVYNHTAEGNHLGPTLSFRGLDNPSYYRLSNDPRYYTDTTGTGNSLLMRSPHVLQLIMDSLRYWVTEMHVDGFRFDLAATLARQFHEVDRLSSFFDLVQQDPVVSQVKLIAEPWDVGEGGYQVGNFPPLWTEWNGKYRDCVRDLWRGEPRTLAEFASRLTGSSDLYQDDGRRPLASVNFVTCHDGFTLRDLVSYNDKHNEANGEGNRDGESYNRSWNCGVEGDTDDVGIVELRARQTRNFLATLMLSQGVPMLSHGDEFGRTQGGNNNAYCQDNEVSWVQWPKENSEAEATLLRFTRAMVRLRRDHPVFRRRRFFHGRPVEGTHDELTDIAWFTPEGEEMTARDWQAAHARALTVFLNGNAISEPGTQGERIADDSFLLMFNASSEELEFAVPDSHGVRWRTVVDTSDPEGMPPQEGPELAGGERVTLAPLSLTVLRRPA

Turning to `Nc1nc2c(ncn2[C@@H]2O[C@@H]3CO[P@](=O)(O)O[C@H]4[C@@H](O)[C@H](n5cnc6c(=O)[nH]c(N)nc65)O[C@@H]4CO[P@](=O)(O)O[C@H]3[C@H]2O)c(=O)[nH]1` [c-di-GMP, bis-(3′−5′)-cyclic diguanosine monophosphate], in test [1], the Kd was 8.3 µM. Moreover, the “stimulation of enzyme activity by c-di-GMP” value in test [2] is listed as “could not be stimulated”.
